{
  "source": "patent US10028992B2",
  "about": "“Methods of treating muscular dystrophy” (BOARD OF REGENTS OF THE NEVADA SYSTEM OF HIGHER EDUCATION …, priority 2012, dated 2018)",
  "tested_on": "α7 integrin promoter",
  "experiment": "muscle cell-based assay: α7βgal+/− myoblasts/myotubes, LacZ reporter, β-galactosidase cleavage of FDG",
  "set-up": "species or system mouse; Results in α7+/− β-galactosidase assay: scale not given here",
  "conditions": "for Results in α7+/− β-galactosidase assay / Result in α7+/− β-galactosidase assay: Myoblasts; for Results in a α7+/− β-galactosidase assay, Myotubes, 0.5 uM: compound at 0.5 uM; for Results in a α7+/− β-galactosidase assay, Myotubes, 1 uM: compound at 1 uM; for Results in a α7+/− β-galactosidase assay, Myotubes, 5 uM: compound at 5 uM; for Results in a α7+/− β-galactosidase assay, Myotubes, 10 uM: compound at 10 uM; for Results in a α7+/− β-galactosidase assay, Myotubes, 20 uM: compound at 20 uM; for Results in a α7+/− β-galactosidase assay, Myotubes, 40 uM: compound at 40 uM; for AC50: log of AC50, given with negative sign, unit of AC50 not given, read-out: Fit Log AC50 (converted); for Fit Curve Class: key not given",
  "in_short": "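Primary α7βgal+/− mouse myoblasts (LacZ knocked into α7 integrin exon 1, promoter retained), differentiated; promoter activity read as β-galactosidase conversion of non-fluorescent FDG to fluorescein. Hits followed by dose-response, western analysis and myostatin counterscreen.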",
  "key": {"[1]": {"conditions": "Table 12, fitted activity at zero concentration"}, "[2]": {"conditions": "Table 12 Compound data, concentration-response curve fit"}},
  "data": [
    {"smiles": "Cc1cccc(NC(=O)CN(C)C(=O)c2ccc(-c3ccc(Cl)cc3)o2)c1", "note": "[drawing 643]", "values": [
      {"measurement": "Results in α7+/− β-galactosidase assay", "setting": "0.5 uM", "value": "−0.0624"},
      {"measurement": "Results in α7+/− β-galactosidase assay", "setting": "1 uM", "value": "−0.00739"},
      {"measurement": "Results in α7+/− β-galactosidase assay", "setting": "5 uM", "value": "−0.04166"},
      {"measurement": "Results in α7+/− β-galactosidase assay", "setting": "10 uM", "value": "−0.109"},
      {"measurement": "Results in α7+/− β-galactosidase assay", "setting": "20 uM", "value": 0.6807},
      {"measurement": "Results in α7+/− β-galactosidase assay", "setting": "40 uM", "value": "−0.2589"}
    ]},
    {"smiles": "Cc1ccccc1S(=O)(=O)N1C[C@H]2CON(C)[C@H]2C[C@H]1c1cccc(-c2ccccc2)c1", "note": "[drawing 436]", "values": [
      {"measurement": "Results in a α7+/− β-galactosidase assay, Myotubes, 0.5 uM", "value": 0.01204},
      {"measurement": "Results in a α7+/− β-galactosidase assay, Myotubes, 1 uM", "value": 0.03174},
      {"measurement": "Results in a α7+/− β-galactosidase assay, Myotubes, 5 uM", "value": "−0.2012"},
      {"measurement": "Results in a α7+/− β-galactosidase assay, Myotubes, 10 uM", "value": "−0.2418"},
      {"measurement": "Results in a α7+/− β-galactosidase assay, Myotubes, 20 uM", "value": "−0.3306"},
      {"measurement": "Results in a α7+/− β-galactosidase assay, Myotubes, 40 uM", "value": "−0.5892"}
    ]},
    {"smiles": "CC(C)(CC(=O)O)CC(=O)N1CCCN(c2nccc(C(F)(F)F)n2)CC1", "note": "[Compound 56]", "values": [
      {"measurement": "AC50", "setting": "Mus musculus, Table 12", "value": 3.98, "unit": "µM"},
      {"measurement": "Fit HillSlope", "setting": "Table 12, curve fit", "value": 1.5095},
      {"measurement": "Fit Zero Activity [%]", "setting": "[1]", "value": 21.8862, "unit": "%"},
      {"measurement": "Fit Curve Class", "setting": "Table 12", "value": 2.1},
      {"measurement": "Score", "setting": "[2]", "value": 45}
    ]},
    {"smiles": "CC(C)(C)c1ccc(C(=O)OCC(=O)Nc2sc3c(c2C#N)CCC3)cc1", "note": "[drawing 470]", "values": [
      {"measurement": "Results in a α7+/− β-galactosidase assay, Myotubes, 0.5 uM", "value": "−0.03535"},
      {"measurement": "Results in a α7+/− β-galactosidase assay, Myotubes, 1 uM", "value": "−0.03363"},
      {"measurement": "Results in a α7+/− β-galactosidase assay, Myotubes, 5 uM", "value": 0.4586},
      {"measurement": "Results in a α7+/− β-galactosidase assay, Myotubes, 10 uM", "value": "−0.1998"},
      {"measurement": "Results in a α7+/− β-galactosidase assay, Myotubes, 20 uM", "value": "−0.05439"},
      {"measurement": "Results in a α7+/− β-galactosidase assay, Myotubes, 40 uM", "value": "−0.05938"}
    ]},
    {"smiles": "CC(C)c1ccc(OC(=O)c2cccc(S(=O)(=O)N3CCN(C)CC3)c2)cc1", "note": "[drawing 606]", "values": [
      {"measurement": "Results in α7+/− β-galactosidase assay", "setting": "0.5 uM", "value": "−0.02855"},
      {"measurement": "Results in α7+/− β-galactosidase assay", "setting": "1 uM", "value": "−0.1053"},
      {"measurement": "Results in α7+/− β-galactosidase assay", "setting": "5 uM", "value": 0.3741},
      {"measurement": "Results in α7+/− β-galactosidase assay", "setting": "10 uM", "value": "−0.02381"},
      {"measurement": "Results in α7+/− β-galactosidase assay", "setting": "20 uM", "value": 0.03734},
      {"measurement": "Results in α7+/− β-galactosidase assay", "setting": "40 uM", "value": "−0.08446"}
    ]},
    {"smiles": "CCn1c(=O)c2cc(C(=O)N(C)c3cc(C)ccc3OC)sc2c2ccccc21", "note": "[drawing 636]", "values": [
      {"measurement": "Results in α7+/− β-galactosidase assay", "setting": "0.5 uM", "value": 0.06384},
      {"measurement": "Results in α7+/− β-galactosidase assay", "setting": "1 uM", "value": "−0.07654"},
      {"measurement": "Results in α7+/− β-galactosidase assay", "setting": "5 uM", "value": "−0.2273"},
      {"measurement": "Results in α7+/− β-galactosidase assay", "setting": "10 uM", "value": "−0.2656"},
      {"measurement": "Results in α7+/− β-galactosidase assay", "setting": "20 uM", "value": "−0.396"},
      {"measurement": "Results in α7+/− β-galactosidase assay", "setting": "40 uM", "value": "−0.3923"}
    ]},
    {"smiles": "COc1c(Cl)cc(/C=C2\\C(=O)Nc3ccccc32)cc1Cl", "note": "[drawing 713]", "values": [
      {"measurement": "Result in α7+/− β-galactosidase assay", "setting": "0.5 uM", "value": 0.3543},
      {"measurement": "Result in α7+/− β-galactosidase assay", "setting": "1 uM", "value": 0.1322},
      {"measurement": "Result in α7+/− β-galactosidase assay", "setting": "5 uM", "value": "−0.0815"},
      {"measurement": "Result in α7+/− β-galactosidase assay", "setting": "10 uM", "value": "−0.2165"},
      {"measurement": "Result in α7+/− β-galactosidase assay", "setting": "20 uM", "value": "−0.302"},
      {"measurement": "Result in α7+/− β-galactosidase assay", "setting": "40 uM", "value": "−0.4698"}
    ]},
    {"smiles": "COc1cc(NC(=O)OCc2ccccc2)c2ncccc2c1", "note": "[drawing 557]", "values": [
      {"measurement": "Results in α7+/− β-galactosidase assay", "setting": "0.5 uM", "value": 0.0156},
      {"measurement": "Results in α7+/− β-galactosidase assay", "setting": "1 uM", "value": "−0.08284"},
      {"measurement": "Results in α7+/− β-galactosidase assay", "setting": "5 uM", "value": 0.01997},
      {"measurement": "Results in α7+/− β-galactosidase assay", "setting": "10 uM", "value": 0.2347},
      {"measurement": "Results in α7+/− β-galactosidase assay", "setting": "20 uM", "value": "−0.06526"},
      {"measurement": "Results in α7+/− β-galactosidase assay", "setting": "40 uM", "value": "−0.1686"}
    ]},
    {"smiles": "O=C1Nc2ccccc2/C1=C/c1ccccc1F", "note": "[drawing 383]", "values": [
      {"measurement": "Results in a α7+/− β-galactosidase assay, Myotubes, 0.5 uM", "value": "−0.06236"},
      {"measurement": "Results in a α7+/− β-galactosidase assay, Myotubes, 1 uM", "value": "−0.04077"},
      {"measurement": "Results in a α7+/− β-galactosidase assay, Myotubes, 5 uM", "value": "−0.1089"},
      {"measurement": "Results in a α7+/− β-galactosidase assay, Myotubes, 10 uM", "value": 0.02646},
      {"measurement": "Results in a α7+/− β-galactosidase assay, Myotubes, 20 uM", "value": "−0.3381"},
      {"measurement": "Results in a α7+/− β-galactosidase assay, Myotubes, 40 uM", "value": "−0.4226"}
    ]},
    {"smiles": "CCCC(=O)OCC(=O)c1[nH]c(C)c(C(C)=O)c1C", "note": "[drawing 704]", "values": [
      {"measurement": "Results in α7+/− β-galactosidase assay", "setting": "0.5 uM", "value": 0.1272},
      {"measurement": "Results in α7+/− β-galactosidase assay", "setting": "1 uM", "value": 0.03672},
      {"measurement": "Results in α7+/− β-galactosidase assay", "setting": "5 uM", "value": 0.01568},
      {"measurement": "Results in α7+/− β-galactosidase assay", "setting": "10 uM", "value": 0.2296},
      {"measurement": "Results in α7+/− β-galactosidase assay", "setting": "20 uM", "value": "−0.2776"},
      {"measurement": "Results in α7+/− β-galactosidase assay", "setting": "40 uM", "value": "−0.5017"}
    ]},
    {"smiles": "CC(C)CC1NC(=O)N(CC(=O)N2c3ccccc3NC(=O)C2(C)C)C1=O", "note": "(stereo not shown) [Compound 21]", "values": [
      {"measurement": "Activity at 1.530 μM [%] **", "setting": "1.530 μM", "value": 0, "unit": "%"},
      {"measurement": "AC50", "setting": "Mus musculus, Table 12", "value": 5.62, "unit": "µM"},
      {"measurement": "Emax", "setting": "Mus musculus, read-out: Max Response [%]", "value": 93.3, "unit": "%"},
      {"measurement": "Fit HillSlope", "setting": "Table 12, curve fit", "value": 4.4495},
      {"measurement": "Fit Zero Activity [%]", "setting": "[1]", "value": 1.1731, "unit": "%"},
      {"measurement": "Fit Curve Class", "setting": "Table 12", "value": 1.1},
      {"measurement": "Score", "setting": "[2]", "value": 84}
    ]},
    {"smiles": "COc1ccc(CCNC(=O)c2nn(C)c3c2CS(=O)(=O)c2ccccc2-3)cc1OC", "note": "[Compound 74]", "values": [
      {"measurement": "AC50", "setting": "Mus musculus, Table 12", "value": 4.47, "unit": "µM"},
      {"measurement": "Fit HillSlope", "setting": "Table 12, curve fit", "value": 1.8617},
      {"measurement": "Fit Zero Activity [%]", "setting": "[1]", "value": "−23.105", "unit": "%"},
      {"measurement": "Fit Curve Class", "setting": "Table 12", "value": 2.1},
      {"measurement": "Score", "setting": "[2]", "value": 44}
    ]},
    {"smiles": "CC(C)CN(C(=O)c1cccc(Cl)c1)c1c(N)n(Cc2ccccc2)c(=O)[nH]c1=O", "note": "[drawing 336]", "values": [
      {"measurement": "Results in a α7+/− β-galactosidase assay, Myotubes, 0.5 uM", "value": 0.198},
      {"measurement": "Results in a α7+/− β-galactosidase assay, Myotubes, 1 uM", "value": 0.2672},
      {"measurement": "Results in a α7+/− β-galactosidase assay, Myotubes, 5 uM", "value": "−0.02107"},
      {"measurement": "Results in a α7+/− β-galactosidase assay, Myotubes, 10 uM", "value": 0.07176},
      {"measurement": "Results in a α7+/− β-galactosidase assay, Myotubes, 20 uM", "value": "−0.1352"},
      {"measurement": "Results in a α7+/− β-galactosidase assay, Myotubes, 40 uM", "value": "−0.2545"}
    ]},
    {"smiles": "Cc1cc(C(=O)Nc2cccc3ccccc23)c(C)o1", "note": "[Compound 153]", "values": [
      {"measurement": "EC50", "setting": "Mus musculus, given as log AC50 (negative values), read-out: Fit LogAC50 (converted)", "value": 7.94, "unit": "µM"},
      {"measurement": "Score", "setting": "Table 12 compound data", "value": 42},
      {"measurement": "Fit Curve Class", "setting": "curve class number", "value": 2.1},
      {"measurement": "Fit HillSlope", "setting": "curve fit", "value": 1.5095},
      {"measurement": "Fit Zero Activity [%]", "setting": "curve fit, activity at zero concentration", "value": "−21.2671", "unit": "%"}
    ]}
  ]
}
